Experiments:
[1] = target: Sodium-dependent serotonin transporter (Rattus norvegicus, UniProt P31652); test: Inhibition of SERT-mediated [3H]5HT uptake in rat synaptosomes by scintillation counting; type: subcellular, Brain
[2] = target: T1, 5-hydroxytryptamine receptor 1A (Homo sapiens, UniProt P08908); test: biochemical; type: cell-based, HEK293
T1 sequence (P08908 whole entry): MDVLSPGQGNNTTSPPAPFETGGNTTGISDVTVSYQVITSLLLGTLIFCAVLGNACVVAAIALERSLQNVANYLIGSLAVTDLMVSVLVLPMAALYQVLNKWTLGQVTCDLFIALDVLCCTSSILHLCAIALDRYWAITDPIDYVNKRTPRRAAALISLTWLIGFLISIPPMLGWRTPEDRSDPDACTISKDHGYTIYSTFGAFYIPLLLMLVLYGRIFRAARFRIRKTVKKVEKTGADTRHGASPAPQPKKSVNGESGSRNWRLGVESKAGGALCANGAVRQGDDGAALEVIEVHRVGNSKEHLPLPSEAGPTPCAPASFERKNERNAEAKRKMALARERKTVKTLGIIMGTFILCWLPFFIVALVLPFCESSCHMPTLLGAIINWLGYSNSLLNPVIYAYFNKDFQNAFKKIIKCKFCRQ
Description: Displacement of [3H]5-carboxamidotryptamine to human 5HT1A expressed in HEK293 cells by filter binding assay

[3] = target: T2, 5-hydroxytryptamine receptor 3A (Homo sapiens, UniProt P46098); test: Displacement of [3H]granisetron from human 5HT3A receptor expressed in HEK293 cells by filter binding assay; type: cell-based
T2 sequence (P46098 whole entry): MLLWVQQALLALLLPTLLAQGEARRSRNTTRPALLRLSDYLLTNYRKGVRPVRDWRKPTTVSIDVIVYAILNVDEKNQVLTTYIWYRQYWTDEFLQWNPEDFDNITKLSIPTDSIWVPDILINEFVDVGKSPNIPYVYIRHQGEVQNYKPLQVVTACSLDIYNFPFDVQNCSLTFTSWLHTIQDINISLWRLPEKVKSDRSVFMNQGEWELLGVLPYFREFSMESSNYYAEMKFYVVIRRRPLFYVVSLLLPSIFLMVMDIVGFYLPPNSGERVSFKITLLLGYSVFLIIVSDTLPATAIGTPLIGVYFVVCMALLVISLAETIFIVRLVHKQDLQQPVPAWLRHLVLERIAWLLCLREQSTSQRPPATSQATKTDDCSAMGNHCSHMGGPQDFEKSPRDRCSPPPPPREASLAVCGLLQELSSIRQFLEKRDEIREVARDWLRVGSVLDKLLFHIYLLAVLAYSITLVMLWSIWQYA

Cytochrome P450 3A4 = Cytochrome P450 3A4 (Homo sapiens, UniProt P08684); test: Inhibition of human recombinant CYP3A4 using resorufin benzyl ether after 30 mins by fluorescence spectrophotometric analysis; type: ADME
Cytochrome P450 2D6 = Cytochrome P450 2D6 (Homo sapiens, UniProt P10635); test: Inhibition of human recombinant CYP2D6 using 3-[2-(N,N-diethyl-N-methylamino)ethyl]-7-methoxy- 4-methylcoumarin after 45 mins by fluorescence spectrophotometric analysis; type: ADME
Cytochrome P450 2C9 = Cytochrome P450 2C9 (Homo sapiens, UniProt P11712); test: Inhibition of human recombinant CYP2C9 using dibenzylfluorescein after 45 mins by fluorescence spectrophotometric analysis; type: ADME
Cytochrome P450 1A2 = target: T3, Cytochrome P450 1A2 (Homo sapiens, UniProt P05177); test: Inhibition of human recombinant CYP1A2 using 7-ethoxy-3-cyanocoumarin after 28 mins by fluorescence spectrophotometric analysis; type: ADME
T3 sequence (P05177 whole entry): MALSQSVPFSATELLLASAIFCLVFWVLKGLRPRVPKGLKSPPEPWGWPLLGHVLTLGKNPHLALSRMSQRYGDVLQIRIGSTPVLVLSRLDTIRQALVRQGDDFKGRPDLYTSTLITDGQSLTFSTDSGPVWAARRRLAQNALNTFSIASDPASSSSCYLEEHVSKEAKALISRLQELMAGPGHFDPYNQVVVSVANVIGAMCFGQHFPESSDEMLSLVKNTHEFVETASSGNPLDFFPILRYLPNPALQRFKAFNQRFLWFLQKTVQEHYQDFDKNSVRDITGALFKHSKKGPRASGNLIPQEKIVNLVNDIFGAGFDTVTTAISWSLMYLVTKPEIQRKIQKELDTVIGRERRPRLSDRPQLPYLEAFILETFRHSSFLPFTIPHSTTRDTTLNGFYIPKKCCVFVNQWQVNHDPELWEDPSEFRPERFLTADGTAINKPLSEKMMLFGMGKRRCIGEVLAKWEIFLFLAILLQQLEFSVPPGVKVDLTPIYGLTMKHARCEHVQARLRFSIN

Liver microsomes [4] = test: Intrinsic clearance in rat liver microsomes at 1 uM after 60 mins by LC-MS/MS analysis; type: ADME, Microsome; settings: 1 h
Liver microsomes [5] = test: Intrinsic clearance in human liver microsomes at 1 uM after 60 mins by LC-MS/MS analysis; type: ADME, Microsome; settings: 1 h
[6] = Inhibition of NET-mediated [3H]NE in rat synaptosomes by scintillation counting; type: subcellular, Brain
[7] = target: T4, Sodium-dependent dopamine transporter (Rattus norvegicus, UniProt P23977); test: Inhibition of DAT-mediated [3H]DA in rat synaptosomes by scintillation counting; type: subcellular, Brain
Rattus norvegicus [8] = species: Rattus norvegicus; test: Selectivity ratio of IC50 for NET to IC50 for SERT in rat synaptosomes; settings: Brain
Rattus norvegicus [9] = species: Rattus norvegicus; test: Selectivity ratio of IC50 for DAT to IC50 for SERT in rat synaptosomes; settings: Brain
Rattus norvegicus [10] = test: Antidepression activity in sc dosed Harlan rat assessed as increase in extracellular 5HT level in ventral hippocampus region measured up to 180 mins by microdialysis method relative to vehicle-treated control; type: functional
[11] = target: Alpha-1A adrenergic receptor (Rattus norvegicus, UniProt P43140); test: Binding affinity to rat alpha1 adrenergic receptor
[12] = target: 5-hydroxytryptamine receptor 2C (Homo sapiens, UniProt P28335); test: Binding affinity to human 5HT2C receptor
[13] = Oral bioavailability in rat at 2 mg/kg; type: ADME, organism-based; settings: in vivo
Rattus norvegicus [14] = test: Hepatic clearance in rat at 1 mg/kg, iv; type: ADME, organism-based, Liver; design: dose 1 mg/kg, route intravenous; settings: in vivo
[15] = target: T4, Sodium-dependent dopamine transporter; test: Inhibition of rat DAT
[16] = Inhibition of rat NET
Rattus norvegicus [17] = species: Rattus norvegicus; test: Selectivity ratio of IC50 for rat DAT to IC50 for SERT in rat synaptosomes; settings: Brain
Rattus norvegicus [18] = species: Rattus norvegicus; test: Selectivity ratio of IC50 for rat NET to IC50 for SERT in rat synaptosomes; settings: Brain

T4 sequence (P23977 whole entry): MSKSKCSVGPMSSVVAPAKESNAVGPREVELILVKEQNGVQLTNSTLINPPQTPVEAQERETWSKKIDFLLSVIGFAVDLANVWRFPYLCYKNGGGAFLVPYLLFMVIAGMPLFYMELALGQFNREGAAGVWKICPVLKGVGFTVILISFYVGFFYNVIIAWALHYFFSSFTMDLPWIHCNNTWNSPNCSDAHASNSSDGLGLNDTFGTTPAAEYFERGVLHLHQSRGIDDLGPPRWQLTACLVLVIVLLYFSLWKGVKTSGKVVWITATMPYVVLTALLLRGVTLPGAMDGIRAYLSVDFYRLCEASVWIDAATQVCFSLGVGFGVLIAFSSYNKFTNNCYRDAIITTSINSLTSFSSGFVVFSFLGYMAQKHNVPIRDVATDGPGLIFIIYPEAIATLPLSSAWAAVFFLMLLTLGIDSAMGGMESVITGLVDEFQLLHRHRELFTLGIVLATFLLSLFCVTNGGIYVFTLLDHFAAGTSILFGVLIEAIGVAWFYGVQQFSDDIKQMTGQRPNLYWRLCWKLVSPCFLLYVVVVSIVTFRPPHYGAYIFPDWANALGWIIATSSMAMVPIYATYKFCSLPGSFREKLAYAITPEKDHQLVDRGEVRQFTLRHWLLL
Chain of Cytochrome P450 2C9 (P11712 whole entry): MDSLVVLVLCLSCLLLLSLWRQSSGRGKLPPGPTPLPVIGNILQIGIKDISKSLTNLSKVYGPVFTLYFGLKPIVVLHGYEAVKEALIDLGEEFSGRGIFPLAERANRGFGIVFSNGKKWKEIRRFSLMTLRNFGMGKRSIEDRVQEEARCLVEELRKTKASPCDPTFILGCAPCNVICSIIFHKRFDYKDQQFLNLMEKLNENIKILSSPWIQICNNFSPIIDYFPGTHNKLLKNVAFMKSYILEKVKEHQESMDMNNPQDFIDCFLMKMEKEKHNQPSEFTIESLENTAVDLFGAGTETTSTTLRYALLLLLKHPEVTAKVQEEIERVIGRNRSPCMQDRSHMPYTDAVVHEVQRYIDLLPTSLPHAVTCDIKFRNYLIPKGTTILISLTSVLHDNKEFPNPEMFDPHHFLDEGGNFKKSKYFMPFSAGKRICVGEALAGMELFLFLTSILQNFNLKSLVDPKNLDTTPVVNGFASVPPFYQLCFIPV
Chain of Cytochrome P450 3A4 (P08684 whole entry): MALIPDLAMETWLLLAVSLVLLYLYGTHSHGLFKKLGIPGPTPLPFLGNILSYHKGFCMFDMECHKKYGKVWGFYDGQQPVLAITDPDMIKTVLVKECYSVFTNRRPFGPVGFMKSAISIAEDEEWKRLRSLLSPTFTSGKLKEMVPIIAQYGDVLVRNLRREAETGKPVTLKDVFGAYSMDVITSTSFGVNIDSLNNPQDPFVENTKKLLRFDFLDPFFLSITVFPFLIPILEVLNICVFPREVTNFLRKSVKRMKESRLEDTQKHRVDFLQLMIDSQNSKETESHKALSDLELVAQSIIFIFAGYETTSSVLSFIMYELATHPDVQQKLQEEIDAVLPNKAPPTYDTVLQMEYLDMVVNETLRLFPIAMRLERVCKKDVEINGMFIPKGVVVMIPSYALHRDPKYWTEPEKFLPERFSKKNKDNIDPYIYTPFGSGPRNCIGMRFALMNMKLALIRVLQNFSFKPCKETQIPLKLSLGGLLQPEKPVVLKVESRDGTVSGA
Chain of Sodium-dependent serotonin transporter (P31652 whole entry): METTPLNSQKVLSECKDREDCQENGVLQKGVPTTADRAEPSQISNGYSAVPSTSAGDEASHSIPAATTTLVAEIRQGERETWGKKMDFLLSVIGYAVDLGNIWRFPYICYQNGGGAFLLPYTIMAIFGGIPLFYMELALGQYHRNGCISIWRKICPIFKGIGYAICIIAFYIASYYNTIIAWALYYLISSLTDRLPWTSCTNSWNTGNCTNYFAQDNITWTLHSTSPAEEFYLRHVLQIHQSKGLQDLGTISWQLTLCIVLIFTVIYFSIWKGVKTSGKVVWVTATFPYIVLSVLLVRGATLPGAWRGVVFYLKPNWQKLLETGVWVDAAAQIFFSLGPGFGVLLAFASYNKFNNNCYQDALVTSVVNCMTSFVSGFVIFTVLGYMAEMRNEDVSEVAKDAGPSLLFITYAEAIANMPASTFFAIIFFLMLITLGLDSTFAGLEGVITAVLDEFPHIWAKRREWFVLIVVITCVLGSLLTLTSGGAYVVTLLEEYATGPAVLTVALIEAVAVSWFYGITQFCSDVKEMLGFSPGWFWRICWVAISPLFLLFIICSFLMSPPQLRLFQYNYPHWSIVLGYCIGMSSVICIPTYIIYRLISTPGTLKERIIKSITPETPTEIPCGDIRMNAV
Chain of Cytochrome P450 2D6 (P10635 whole entry): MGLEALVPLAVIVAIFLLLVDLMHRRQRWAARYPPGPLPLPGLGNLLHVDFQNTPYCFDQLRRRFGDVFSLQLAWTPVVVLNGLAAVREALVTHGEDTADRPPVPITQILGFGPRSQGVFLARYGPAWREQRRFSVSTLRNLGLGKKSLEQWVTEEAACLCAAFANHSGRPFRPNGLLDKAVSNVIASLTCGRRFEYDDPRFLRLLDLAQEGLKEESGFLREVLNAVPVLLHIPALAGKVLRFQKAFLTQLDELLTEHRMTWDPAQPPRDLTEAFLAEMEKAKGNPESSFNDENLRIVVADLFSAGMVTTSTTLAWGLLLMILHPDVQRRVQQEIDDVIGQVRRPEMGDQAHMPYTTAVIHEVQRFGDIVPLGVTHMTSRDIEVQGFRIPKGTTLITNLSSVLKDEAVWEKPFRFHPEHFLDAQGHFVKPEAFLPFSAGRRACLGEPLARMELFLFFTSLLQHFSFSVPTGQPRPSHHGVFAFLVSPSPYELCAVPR
Chain of 5-hydroxytryptamine receptor 2C (P28335 whole entry): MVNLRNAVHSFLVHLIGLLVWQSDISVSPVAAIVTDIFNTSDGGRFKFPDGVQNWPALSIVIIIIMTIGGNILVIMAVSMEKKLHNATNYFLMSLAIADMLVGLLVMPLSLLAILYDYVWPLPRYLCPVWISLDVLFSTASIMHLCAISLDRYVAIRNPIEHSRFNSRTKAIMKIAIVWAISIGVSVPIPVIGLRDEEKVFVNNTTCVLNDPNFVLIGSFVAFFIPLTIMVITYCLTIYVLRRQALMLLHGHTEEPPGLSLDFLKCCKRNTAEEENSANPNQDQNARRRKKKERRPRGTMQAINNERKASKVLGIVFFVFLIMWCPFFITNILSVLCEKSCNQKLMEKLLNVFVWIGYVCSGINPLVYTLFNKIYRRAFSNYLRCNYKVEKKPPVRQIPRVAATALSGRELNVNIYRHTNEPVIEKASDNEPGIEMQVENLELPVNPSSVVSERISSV
Chain of Alpha-1A adrenergic receptor (P43140 whole entry): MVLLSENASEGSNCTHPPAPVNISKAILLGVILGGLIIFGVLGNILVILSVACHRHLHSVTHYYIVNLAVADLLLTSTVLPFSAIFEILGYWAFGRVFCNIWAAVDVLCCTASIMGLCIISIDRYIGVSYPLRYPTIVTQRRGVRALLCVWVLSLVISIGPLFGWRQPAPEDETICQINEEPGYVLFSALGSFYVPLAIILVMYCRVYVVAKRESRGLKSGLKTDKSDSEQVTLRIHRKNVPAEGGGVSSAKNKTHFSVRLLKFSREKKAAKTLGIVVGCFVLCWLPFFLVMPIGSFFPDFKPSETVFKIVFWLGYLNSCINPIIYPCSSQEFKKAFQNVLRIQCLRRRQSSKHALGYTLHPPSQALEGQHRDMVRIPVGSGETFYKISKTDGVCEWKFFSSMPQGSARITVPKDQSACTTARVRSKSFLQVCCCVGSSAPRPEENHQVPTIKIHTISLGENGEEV

Row | IC50 [1] | Ki [2] | Ki [3] | Structure (SMILES) | further results
1 | 7.6 nM | 330 nM | 32 nM | COc1ccc(Sc2ccccc2N2CCNCC2)c(OC)c1 | –
2 | 9.5 nM | 2500 nM | 500 nM | Cc1ccc(Sc2ccc(Cl)cc2)c(N2CCNCC2)c1 | –
3 | 18 nM | 44 nM | 56 nM | Cc1ccc(Sc2ccccc2N2CCNCC2)cc1.Cl | IC50 (Cytochrome P450 3A4): 16000 nM; IC50 (Cytochrome P450 2D6): 2700 nM; IC50 (Cytochrome P450 2C9): 40000 nM; IC50 (Cytochrome P450 1A2): 40000 nM; CLH (Liver microsomes [4]): 260 mL/min; CLH (Liver microsomes [5]): 1.1 L/min; IC50 [6]: 460 nM; IC50 [7]: 110 nM; Ratio IC50 (Rattus norvegicus [8]): 25; Ratio IC50 (Rattus norvegicus [9]): 6.1
4 | 5.8 nM | 53 nM | 33 nM | Cc1ccc(Sc2ccccc2N2CCNCC2)cc1C.Cl | IC50 (Cytochrome P450 3A4): 11000 nM; IC50 (Cytochrome P450 2D6): 2800 nM; IC50 (Cytochrome P450 2C9): 34000 nM; IC50 (Cytochrome P450 1A2): 26000 nM; CLH (Liver microsomes [4]): 290 mL/min; CLH (Liver microsomes [5]): 0.5 L/min; IC50 [6]: 880 nM; IC50 [7]: 120 nM; Ratio IC50 (Rattus norvegicus [8]): 150; Ratio IC50 (Rattus norvegicus [9]): 21
5 | – | – | – | CN(C)CCC[C@@]1(c2ccc(F)cc2)OCc2cc(C#N)ccc21 [ESCITALOPRAM] | Activity (Rattus norvegicus [10]): 700%
6 | 15 nM | 160 nM | 86 nM | COc1ccc(Sc2ccccc2N2CCNCC2)cc1OC | –
7 | 8 nM | 130 nM | 36 nM | COc1ccc(Sc2ccccc2N2CCNCC2)cc1 | –
8 | 5.2 nM | 78 nM | 26 nM | Cl.Clc1ccc(Sc2ccccc2N2CCNCC2)c(Cl)c1 | IC50 (Cytochrome P450 3A4): 4400 nM; IC50 (Cytochrome P450 2D6): 900 nM; IC50 (Cytochrome P450 2C9): 34000 nM; IC50 (Cytochrome P450 1A2): 27000 nM; CLH (Liver microsomes [4]): 38 mL/min; CLH (Liver microsomes [5]): 0.5 L/min; IC50 [6]: 120 nM; IC50 [7]: 250 nM; Ratio IC50 (Rattus norvegicus [8]): 23; Ratio IC50 (Rattus norvegicus [9]): 48
9 | 4.7 nM | 68 nM | 110 nM | Clc1ccc(Sc2ccccc2N2CCNCC2)cc1Cl | –
10 | – | – | – | Clc1cccc(Sc2ccccc2N2CCNCC2)c1Cl | IC50 (Cytochrome P450 2C9): 40000 nM; Ratio IC50 (Rattus norvegicus [8]): 7; Ratio IC50 (Rattus norvegicus [9]): 1
11 | 53 nM | 140 nM | 62 nM | COc1cccc(Sc2ccccc2N2CCNCC2)c1 | –
12 | 7.9 nM | 4000 nM | 190 nM | COc1ccc(Sc2ccc(C)cc2N2CCNCC2)cc1 | Ki [11]: < 100 nM; Ki [12]: < 100 nM
13 | 68 nM | 1100 nM | 440 nM | Cc1ccc(Sc2ccc(F)cc2)c(N2CCNCC2)c1 | –
14 | 4.4 nM | – | 29 nM | Cc1cccc(Sc2ccccc2N2CCNCC2)c1C | IC50 (Cytochrome P450 1A2): 24000 nM; IC50 [7]: 170 nM; Ratio IC50 (Rattus norvegicus [8]): 20; Ratio IC50 (Rattus norvegicus [9]): 38
15 | 9.7 nM | 78 nM | 7.3 nM | Cc1ccc(Sc2ccccc2N2CCNCC2)c(Cl)c1.Cl | IC50 (Cytochrome P450 3A4): 5500 nM; IC50 (Cytochrome P450 2D6): 1500 nM; IC50 (Cytochrome P450 2C9): 40000 nM; IC50 (Cytochrome P450 1A2): 34000 nM; CLH (Liver microsomes [4]): 120 mL/min; CLH (Liver microsomes [5]): 0.6 L/min; IC50 [6]: 340 nM; IC50 [7]: 320 nM; Ratio IC50 (Rattus norvegicus [8]): 35; Ratio IC50 (Rattus norvegicus [9]): 33
16 | 13 nM | 69 nM | 36 nM | Cl.Clc1ccc(Sc2ccccc2N2CCNCC2)cc1 | bioavailability [13]: 26%; CLH (Rattus norvegicus [14]): 96.7 mL/min/kg; IC50 (Cytochrome P450 3A4): 6800 nM; IC50 (Cytochrome P450 2D6): 400 nM; IC50 (Cytochrome P450 2C9): 31000 nM; IC50 (Cytochrome P450 1A2): 53000 nM; CLH (Liver microsomes [4]): 70 mL/min; CLH (Liver microsomes [5]): 0.6 L/min; IC50 [15]: 45 nM; IC50 [16]: 190 nM; IC50 [6]: 160 nM; IC50 [7]: 37 nM; Ratio IC50 (Rattus norvegicus [8]): 12; Ratio IC50 (Rattus norvegicus [9]): 2.8; Ratio IC50 (Rattus norvegicus [17]): 3.5; Ratio IC50 (Rattus norvegicus [18]): 15
17 | 25 nM | – | 150 nM | Cc1ccc(Sc2ccc(C)cc2N2CCNCC2)c(C)c1 | –
18 | 330 nM | 59 nM | 52 nM | COc1ccccc1Sc1ccccc1N1CCNCC1 | –
19 | 540 nM | 540 nM | 670 nM | Cc1ccc(Sc2c(C)cccc2N2CCNCC2)c(C)c1 | –
20 | 54 nM | 100 nM | 64 nM | Cc1cccc(Sc2ccccc2N2CCNCC2)c1 | –
21 | 2100 nM | 2500 nM | 450 nM | CC(C)(C)c1ccc(Sc2ccccc2N2CCNCC2)cc1 | –
22 | 130 nM | – | 27 nM | Cc1ccc(Sc2ccccc2N2CCCNCC2)c(C)c1 | –
23 | 11 nM | 210 nM | 17 nM | COc1cc(C)ccc1Sc1ccccc1N1CCNCC1 | –
24 | 51 nM | 14 nM | 32 nM | Cc1ccccc1Sc1ccccc1N1CCNCC1 | –
25 | 37 nM | – | – | COc1cccc(Sc2ccccc2N2CCNCC2)c1OC | –
26 | 4.3 nM | 94 nM | 12 nM | COc1ccc(Sc2ccccc2N2CCNCC2)c(Cl)c1 | –
27 | 680 nM | 120 nM | 130 nM | Cc1ccc(Sc2ccccc2N2CCN(C)CC2)c(C)c1 | –
28 | 6.9 nM | 240 nM | 140 nM | FC(F)(F)c1ccc(Sc2ccccc2N2CCNCC2)cc1 | –
29 | 20 nM | 2800 nM | 260 nM | Cc1ccc(Sc2ccc(C)cc2N2CCNCC2)cc1 | –
30 | 67 nM | 39 nM | 53 nM | Fc1ccc(Sc2ccccc2N2CCNCC2)cc1 | –

Row | Structure (SMILES) | IC50 [1] | Ki [2] | Ki [3] | further results
31 | Cc1ccc(Sc2ccccc2)c(N2CCNCC2)c1 | 150 nM | 1100 nM | 310 nM | –
32 | O=C1CC2(CCCC2)CC(=O)N1CCCCN1CCN(c2ncccn2)CC1 [BUSPIRONE] | – | – | > 10000 nM | –
33 | Cc1ccc(Oc2ccccc2N2CCNCC2)c(C)c1 | 250 nM | 65 nM | 270 nM | –
34 | Cc1ccc(Sc2cccc(C)c2N2CCNCC2)c(C)c1 | 44 nM | 420 nM | 160 nM | –
35 | Cc1ccc(Sc2cc(C)ccc2N2CCNCC2)c(C)c1 | 200 nM | – | 45 nM | –
36 | c1ccc(Sc2ccccc2N2CCNCC2)cc1 | 390 nM | 30 nM | 64 nM | –

Source: ChEMBL document CHEMBL2203036, “Discovery of 1-[2-(2,4-dimethylphenylsulfanyl)phenyl]piperazine (Lu AA21004): a novel multimodal compound for the treatment of major depressive disorder” (J Med Chem, 2011)
